Assay results: patent US7060698B2, “Benzoxazepinone derivatives” (Hoffmann-La Roche Inc., priority 2003, dated 2006)

Biological target: γ-secretase (Homo sapiens, UniProt P49768)
Test: in vitro assay of γ-secretase activity (HEK293 membrane fraction, recombinant APP substrate, Abeta ELISA)
Format: biochemical
Details: statement in the synthesis example on the separated diastereomers; assay not named
Text: The activity of test compounds can be evaluated in assays which measure the proteolytic cleavage of suitable substrates by γ-secretase activity. These can be cellular assays where e.g., a substrate of the γ-secretase is fused in its cytoplasmic domain to a transcription factor. Cells are transfected with this fusion gene and a reporter gene, e.g., firefly luciferase, which expression is enhanced by the transcription factor. Cleavage of the fused substrate by γ-secretase will lead to expression of the reporter gene which can be monitored in appropriate assays. The γ-secretase activity can also be determined in cell-free in vitro assays where e.g., a cell lysate containing the γ-secretase complex is incubated with a suitable APP-derived substrate which is cleaved to the Abeta peptides. The amount of produced peptides can be determined with specific ELISA assays. Cell lines of neuronal origin secrete Abeta peptides which can be measured with the specific ELISA assay. Treatment with compounds which inhibit γ-secretase leads to a reduction of secreted Abeta thus providing a measure of inhibition. The in vitro assay of γ-secretase activity uses a HEK293 membrane fraction as a source of γ-secretase and a recombinant APP substrate. Latter consist of the C-terminal 100 amino acids of human APP fused to a 6× Histidin tail for purification which is expressed in E. coli in a regulatable expression vector, e.g. pEt15. This recombinant protein corresponds to the truncated APP fragment which results after […] of the extracellular domain and which constitutes the γ-secretase substrate. The assay principle is described in Li Y M et al, PNAS 97(11), 6138–6143 (2000). Hek293 cells are mechanically disrupted and the microsomal fraction is isolated by differential centrifugation. The membranes are solubilized in detergent (0.25% CHAPSO) and incubated with the APP substrate.

Row | Structure (SMILES) | inhibitory activity of the separated diastereomers
1 | CCC1Oc2ccc(Cl)cc2C(C(=O)NC2CCCCC2)N(C2CCCCC2)C1=O (stereo not drawn) [Example 6, 7-Chloro-4-cyclohexyl-2-ethyl-3-oxo-2,3,4,5-tetrahydro-benzo[f][1,4]oxazepine-5-carboxylic acid cyclohexylamide] | both inhibitorily active
2 | CCC1Oc2ccc(Cl)cc2C(C(=O)NC2CCCCC2)N(Cc2ccccc2Cl)C1=O (stereo not drawn) [Example 7, 7-Chloro-4-(2-chloro-benzyl)-2-ethyl-3-oxo-2,3,4,5-tetrahydro-benzo[f][1,4]oxazepine-5-carboxylic acid cyclohexylamide] | both inhibitorily active
3 | CCC1Oc2ccc(Cl)cc2C(C(=O)NC2CCCCC2)N(C2CCCC2)C1=O (stereo not drawn) [Example 9, 7-Chloro-4-cyclopentyl-2-ethyl-3-oxo-2,3,4,5-tetrahydro-benzo[f][1,4]oxazepine-5-carboxylic acid cyclohexylamide] | both inhibitorily active
4 | CCC1Oc2ccc(Cl)cc2C(C(=O)NC2CCCCC2)N(C2CCOCC2)C1=O (stereo not drawn) [Example 10, 7-Chloro-2-ethyl-3-oxo-4-(tetrahydro-pyran-4-yl)-2,3,4,5-tetrahydro-benzo[f][1,4]oxazepine-5-carboxylic acid cyclohexylamide] | both inhibitorily active
5 | CCC1Oc2ccc(Cl)cc2C(C(=O)NC2CCCCC2)N(Cc2cccc(C(F)(F)F)c2)C1=O (stereo not drawn) [Example 11, 7-Chloro-2-ethyl-3-oxo-4-(3-trifluoromethyl-benzyl)-2,3,4,5-tetrahydro-benzo[f][1,4]oxazepine-5-carboxylic acid cyclohexylamide] | both inhibitorially active
6 | CCC1Oc2ccc(Cl)cc2C(C(=O)NC(C)(C)C)N(Cc2c(F)cccc2F)C1=O (stereo not drawn) [Example 12, 7-Chloro-4-(2,6-difluoro-benzyl)-2-ethyl-3-oxo-2,3,4,5-tetrahydro-benzo[f][1,4]oxazepine-5-carboxylic acid tert-butylamide] | both inhibitorially active
7 | CCC1Oc2ccc(Cl)cc2C(C(=O)NC(C)(C)C)N(C2CCCCC2)C1=O (stereo not drawn) [Example 13, 7-Chloro-4-cyclohexyl-2-ethyl-3-oxo-2,3,4,5-tetrahydro-benzo[f][1,4]oxazepine-5-carboxylic acid tert-butylamide] | both inhibitorily active
8 | CCC1Oc2ccc(Cl)cc2C(C(=O)NC(C)(C)C)N(Cc2ccccc2Cl)C1=O (stereo not drawn) [Example 14, 7-Chloro-4-(2-chloro-benzyl)-2-ethyl-3-oxo-2,3,4,5-tetrahydro-benzo[f][1,4]oxazepine-5-carboxylic acid tert-butylamide] | both inhibitorily active
9 | CCC1Oc2ccc(Cl)cc2C(C(=O)NC(C)(C)C)N(C2CCCC2)C1=O (stereo not drawn) [Example 16, 7-Chloro-4-cyclopentyl-2-ethyl-3-oxo-2,3,4,5-tetrahydro-benzo[f][1,4]oxazepine-5-carboxylic acid tert-butylamide] | both inhibitorily active
